This passage reports Kd results from patent US20230203098A1, “HUMAN TRANSFERRIN RECEPTOR BINDING PEPTIDE” (priority 2020, published 2023).

The structures appear in SMILES notation. Where two headings read alike, the source gives them in different places. Where a SMILES comes first, the peptide text is derived from it. Bridges are numbered along the chain shown (N, C = ends). [ ]: non-standard residue; d: D form. The star is where a group is joined. X2 = O=C(O)c1cc(C(=O)*)ccc1-c1c2ccc(=O)cc-2oc2cc(O)ccc12; Trp(1-CH2COOH) = N[C@@H](Cc1cn(CC(=O)O)c2ccccc12)C(=O)O; PEG12 = NCCOCCOCCOCCOCCOCCOCCOCCOCCOCCOCCOCCOCCC(=O)O; NMePhe(3-Cl) = CN[C@@H](Cc1cccc(Cl)c1)C(=O)O; NMeW = CN[C@@H](Cc1c[nH]c2ccccc12)C(=O)O; Phe(3-OMe) = COc1cccc(C[C@H](N)C(=O)O)c1; NMeY = CN[C@@H](Cc1ccc(O)cc1)C(=O)O; NMeH = CN[C@@H](Cc1c[nH]cn1)C(=O)O; NMeF = CN[C@@H](Cc1ccccc1)C(=O)O; PEG4 = NCCOCCOCCOCCOCCC(=O)O; Nle = CCCC[C@H](N)C(=O)O

Usually Kd stands for a measure of binding affinity in units of concentration.

This assay addresses transferrin receptor (hTfR) (Homo sapiens, UniProt P02786). Put plainly: Intermolecular interaction evaluation test between transferrin receptor (hTfR) and peptide by surface plasmon resonance (SPR). The assay is classed as binding. The protocol: For each of the various synthesized peptides, the intermolecular interaction of the peptide with the transferrin receptor (hTfR) was tested by surface plasmon resonance (SPR) according to the following method. The specific test method is as follows.
An NTA sensor chip (Global Life Sciences Technologies Japan) was inserted in a Biacore T200 (Global Life Sciences Technologies Japan) and a prime operation was performed 3 times with a running buffer: 10 mM HEPES pH 8.0 (Nacalai Tesque), 150 mM NaCl (Nacalai Tesque), 0.05% Tween 20 (Nacalai Tesque), 0.1% BSA (Sigma-Aldrich), 1.0% DMSO (FUJIFILM Wako Pure Chemical) to create an Equilibration state at a flow rate of 30 µL/min. After reacting with 350 mM EDTA solution for 60 seconds at a flow rate of 10 µL/min then reacting with 0.5 mM NiCl2 solution (Kishida Chemical) for 60 seconds at a flow rate of 10 µL/min, the NTA sensor chip was washed with 3 mM EDTA solution (Nacalai Tesque) for 60 seconds at a flow rate of 10 µL/min. After mixing 50 µL each of 60 mM EDC solution (Global Life Sciences Technologies Japan) and 650 mM NHS solution (Global Life Sciences Technologies Japan), the mixture was reacted for 420 seconds at a flow rate of 10 µL/min. By diluting with the running buffer, 150 µL of 3.2 µM hTfR solution was prepared and used for reaction for 600 seconds at a flow rate of 10 µL/min, thereby immobilizing hTfR on the NTA sensor chip. After immobilization, capping was performed by reacting with 1.0 M ethanolamine aqueous solution (Global Life Sciences Technologies Japan) for 420 seconds at a flow rate of 10 µL/min. A peptide dissolution liquid prepared to 10 mM in the DMSO solution was diluted with the running buffer to a final concentration of 10 µM so as to become the peptide dissolution liquid, then peptide solutions of 100 nM, 50 nM, 25 nM, 10 nM and 5 nM were prepared. Kinetics of the peptide to hTfR was acquired by SPR measurement using the above-mentioned samples. Single-cycle kinetics was used as a kinetic evaluation model and curve fitting was performed using Biacore T200 Evaluation Software Version 3.0 (Global Life Sciences Technologies Japan). An obtained sensorgram was subjected to curve fitting using the least-squares method, and the binding of the peptide to hTfR was evaluated by obtaining KD values. […] A chemical structure of hTfR No. 894 is as follows.
The variant peptides were synthesized according to Example 1 unless otherwise stated in Example 9 or 10. The linker-added peptides were synthesized according to Example 1, except that Fmoc-NH-SAL-PEG resin (Watanabe Chemical Industries) was used as a resin for the peptide synthesis when the linker was PEG. The peptide, to which a peptide, a fatty acid, PEG, or a conjugate thereof is added as a linker, was also synthesized according to Example 1, unless otherwise stated in Example 9 or 10.
For orientation: In SPR one partner is held on a chip, and binding of the other changes the refractive index at the surface.

Setting [1] is: SPR, hTfR No. 894 variants with PEG12c linker (Table 2), read-out: KD.
The mark [2] stands for this setting: surface plasmon resonance, hTfR, read-out: KD value for hTfR by SPR (class symbol).

transferrin receptor (hTfR), sequence (P02786 whole entry): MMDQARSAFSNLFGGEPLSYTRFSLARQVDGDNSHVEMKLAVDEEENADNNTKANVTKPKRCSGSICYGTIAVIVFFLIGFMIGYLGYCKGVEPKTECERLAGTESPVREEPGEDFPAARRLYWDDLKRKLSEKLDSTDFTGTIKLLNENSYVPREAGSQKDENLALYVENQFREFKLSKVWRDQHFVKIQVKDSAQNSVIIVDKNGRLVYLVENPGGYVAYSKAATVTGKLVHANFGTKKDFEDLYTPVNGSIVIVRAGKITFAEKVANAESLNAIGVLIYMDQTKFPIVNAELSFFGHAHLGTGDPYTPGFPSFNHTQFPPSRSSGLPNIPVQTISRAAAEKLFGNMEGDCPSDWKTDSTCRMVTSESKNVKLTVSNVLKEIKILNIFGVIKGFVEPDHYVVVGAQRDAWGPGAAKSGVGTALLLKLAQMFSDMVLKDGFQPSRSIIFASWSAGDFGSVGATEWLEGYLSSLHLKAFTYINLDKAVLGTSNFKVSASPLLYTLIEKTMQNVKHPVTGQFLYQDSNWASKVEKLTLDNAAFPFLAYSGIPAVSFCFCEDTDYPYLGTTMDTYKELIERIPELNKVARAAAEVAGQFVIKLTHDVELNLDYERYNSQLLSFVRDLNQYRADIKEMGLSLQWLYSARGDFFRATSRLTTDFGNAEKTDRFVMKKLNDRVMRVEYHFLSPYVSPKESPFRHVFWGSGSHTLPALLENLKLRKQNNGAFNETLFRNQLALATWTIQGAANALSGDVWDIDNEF

With `CC[C@H](C)[C@@H]1NC(=O)[C@H](Cc2ccc(O)cc2)NC(=O)[C@H](Cc2ccc(O)cc2)NC(=O)[C@H](CC(N)=O)NC(=O)[C@H](Cc2c[nH]c3ccccc23)NC(=O)[C@H](C(C)C)NC(=O)[C@H](Cc2ccccc2)NC(=O)[C@H](C(C)C)NC(=O)[C@H](C)NC(=O)CSC[C@@H](C(=O)NCCOCCOCCOCCOCCOCCOCCOCCOCCOCCOCCOCCOCCC(=O)N[C@@H](CCCCNC(=O)c2ccc(-c3c4ccc(=O)cc-4oc4cc(O)ccc34)c(C(=O)O)c2)C(N)=O)NC(=O)[C@H](Cc2c[nH]cn2)N(C)C(=O)[C@H](CO)NC(=O)[C@H](CCCNC(=N)N)NC(=O)[C@H](Cc2ccccc2)NC(=O)[C@H](CCCNC(=N)N)NC(=O)[C@H](CC(=O)O)NC(=O)[C@H]([C@@H](C)CC)NC1=O` [compound 149] ({CH2CO}-AVFVWNYYIIDRFRS[NMeH]C[PEG12]K(X2)-NH2; thioether N-17), where the note is “SPR, linker and payload (FITC, VivoTag) conjugates, read-out: KD”, the Kd lay within 1 to 100 nM.
As to `CC[C@H](C)[C@@H]1NC(=O)[C@H](Cc2ccc(O)cc2)NC(=O)[C@H](Cc2ccc(O)cc2)NC(=O)[C@H](CC(N)=O)NC(=O)[C@H](Cc2c[nH]c3ccccc23)NC(=O)[C@H](C(C)C)NC(=O)[C@H](Cc2ccccc2)NC(=O)[C@H](C(C)C)NC(=O)[C@H](C)NC(=O)CSC[C@@H](C(=O)NCCOCCOCCOCCOCCOCCOCCOCCOCCOCCOCCOCCOCCC(=O)N[C@@H](CCCCNC(=O)c2ccc(-c3c4ccc(=O)cc-4oc4cc(O)ccc34)c(C(=O)O)c2)C(N)=O)NC(=O)[C@H](CCC(=O)O)NC(=O)[C@H](CCCNC(=N)N)NC(=O)[C@@H]2CCCN2C(=O)[C@H](C(C)C)NC1=O` [compound 211] ({CH2CO}-AVFVWNYYIVPREC[PEG12]K(X2)-NH2; thioether N-14), the dissociation constant (Kd) (SPR, peptides, linker-added peptides and FITC conjugates, Patent ID 203-230, read-out: KD) lay in the range of 1 to 100 nM.
`CC[C@H](C)[C@@H]1NC(=O)[C@H](Cc2ccc(O)cc2)NC(=O)[C@H](Cc2ccc(O)cc2)NC(=O)[C@H](CC(N)=O)NC(=O)[C@H](Cc2c[nH]c3ccccc23)NC(=O)[C@H](C(C)C)NC(=O)[C@H](Cc2ccccc2)N(C)C(=O)[C@H](C(C)C)NC(=O)[C@H](C)NC(=O)CSC[C@@H](C(=O)NCCOCCOCCOCCOCCOCCOCCOCCOCCOCCOCCOCCOCCC(N)=O)NC(=O)[C@H](Cc2ccc(O)cc2)N(C)C(=O)[C@H](C)NC(=O)[C@H](CCCNC(=N)N)NC(=O)[C@H](CCCNC(=N)N)NC(=O)[C@H]([C@@H](C)CC)NC1=O` [compound 123]: the Kd under setting [1] lay within 1 to 100 nM.
Take `CC[C@H](C)[C@@H]1NC(=O)[C@H](Cc2ccc(O)cc2)NC(=O)[C@H](Cc2ccc(O)cc2)NC(=O)[C@H](CC(N)=O)NC(=O)[C@H](Cc2cn(CC(=O)O)c3ccccc23)NC(=O)[C@H](C(C)C)NC(=O)[C@H](Cc2ccccc2)N(C)C(=O)[C@H](C(C)C)NC(=O)[C@H](C)NC(=O)CSC[C@@H](C(=O)N[C@H](CCC(=O)O)C(N)=O)NC(=O)[C@H](Cc2ccc(O)cc2)N(C)C(=O)[C@H](Cc2ccc(O)cc2)NC(=O)[C@@H](CCCNC(=N)N)NC(=O)[C@H](CCCNC(=N)N)NC(=O)[C@H](CCC(=O)O)NC1=O` [compound 473] ({CH2CO}-AV[NMeF]V[Trp(1-CH2COOH)]NYYIER[dR]Y[NMeY]C[dE]-NH2; thioether N-15): for the setting “SPR, hTfR, class symbols A-D, read-out: KD”, the Kd was in the range of 100 to 1000 nM.
As for `CC[C@H](C)[C@@H]1NC(=O)[C@H](Cc2ccc(OC)cc2)NC(=O)[C@H](Cc2ccc(O)cc2)NC(=O)[C@H](CC(N)=O)NC(=O)[C@H](Cc2c[nH]c3ccccc23)N(C)C(=O)[C@H](C(C)C)NC(=O)[C@H](Cc2cccc(Cl)c2)N(C)C(=O)[C@H](C(C)C)NC(=O)[C@H](C)NC(=O)CSC[C@@H](C(N)=O)NC(=O)[C@H](Cc2ccc(O)cc2)N(C)C(=O)[C@H](CCC(=O)NCCCC[C@@H](NC)C(=O)O)NC(=O)[C@@H](CCCNC(=N)N)NC(=O)[C@H](CCCNC(=N)N)NC(=O)[C@H]([C@@H](C)CC)NC1=O` [compound 390], the Kd under setting [2] was in the range of 1 to 100 nM.
The same measure, in the same setting: then `CC[C@H](C)[C@@H]1NC(=O)[C@H](Cc2ccc(OC)cc2)NC(=O)[C@H](Cc2ccc(O)cc2)NC(=O)[C@H](CC(N)=O)NC(=O)[C@H](Cc2c[nH]c3ccccc23)N(C)C(=O)[C@H](C(C)C)NC(=O)[C@H](Cc2cccc(Cl)c2)N(C)C(=O)[C@H](C(C)C)NC(=O)[C@H](C)NC(=O)CSC[C@@H](C(=O)NCCOCCOCCOCCOCCC(N)=O)NC(=O)[C@H](Cc2ccc(O)cc2)N(C)C(=O)[C@H](Cc2ccccc2)NC(=O)[C@@H](CCCNC(=N)N)NC(=O)[C@H](CCCCN)NC(=O)[C@H]([C@@H](C)CC)NC1=O` [compound 374] ({CH2CO}-AV[NMePhe(3-Cl)]V[NMeW]NYY(Me)IIK[dR]F[NMeY]C[PEG4]-NH2; thioether N-15), with 1 to 100 nM.
As to `CC[C@H](C)[C@@H]1NC(=O)[C@H](Cc2ccc(OC)cc2)NC(=O)[C@H](Cc2ccc(O)cc2)NC(=O)[C@H](CC(N)=O)NC(=O)[C@H](Cc2c[nH]c3ccccc23)N(C)C(=O)[C@H](C(C)C)NC(=O)[C@H](Cc2cccc(Cl)c2)N(C)C(=O)[C@H](C(C)C)NC(=O)[C@H](C)NC(=O)CSC[C@@H](C(=O)NCCOCCOCCOCCOCCC(N)=O)NC(=O)[C@H](Cc2ccc(O)cc2)N(C)C(=O)[C@H](Cc2ccccc2)NC(=O)[C@@H](CCCNC(=N)N)NC(=O)[C@H](CCCNC(=N)N)NC(=O)[C@H]([C@@H](C)O)NC1=O` [compound 331], for the setting “surface plasmon resonance, peptide vs hTfR, read-out: KD value, hTfR binding by SPR (class symbol)”, the Kd lay within 1 to 100 nM.
`CC[C@H](C)[C@@H]1NC(=O)[C@H](Cc2ccc(O)cc2)NC(=O)[C@H](Cc2ccc(O)cc2)NC(=O)[C@H](CC(N)=O)NC(=O)[C@H](Cc2cccc(OC)c2)NC(=O)[C@H](C(C)C)NC(=O)[C@H](Cc2ccccc2)N(C)C(=O)[C@H](C(C)C)NC(=O)[C@H](C)NC(=O)CSC[C@@H](C(=O)NCCOCCOCCOCCOCCOCCOCCOCCOCCOCCOCCOCCOCCC(N)=O)NC(=O)[C@H](Cc2ccc(O)cc2)N(C)C(=O)[C@H](Cc2ccc(O)cc2)NC(=O)[C@H](CCCNC(=N)N)NC(=O)[C@H](CCCNC(=N)N)NC(=O)[C@H]([C@@H](C)CC)NC1=O` [compound 113] ({CH2CO}-AV[NMeF]V[Phe(3-OMe)]NYYIIRRY[NMeY]C[PEG12]-NH2; thioether N-15): the dissociation constant (Kd) under setting [1] is less than 1 nM.
As to `CC[C@H](C)[C@@H]1NC(=O)[C@H](Cc2ccc(OC)cc2)NC(=O)[C@H](Cc2ccc(O)cc2)NC(=O)[C@H](CC(N)=O)NC(=O)[C@H](Cc2c[nH]c3ccccc23)N(C)C(=O)[C@H](C(C)C)NC(=O)[C@H](Cc2cccc(Cl)c2)N(C)C(=O)[C@H](CN)NC(=O)[C@H](C)NC(=O)CSC[C@@H](C(=O)NCC(=O)NCC(=O)NCC(=O)NCC(=O)N[C@@H](CO)C(=O)N[C@@H](CO)C(=O)N[C@@H](CS)C(N)=O)NC(=O)[C@H](Cc2ccc(O)cc2)N(C)C(=O)[C@H](Cc2ccccc2)NC(=O)[C@@H](CCCNC(=N)N)NC(=O)[C@H](CCCNC(=N)N)NC(=O)[C@H]([C@@H](C)CC)NC1=O` [compound 239], the Kd lay in the range of 1 to 100 nM.
Turning to `CC[C@H](C)[C@@H]1NC(=O)[C@H](Cc2ccc(O)cc2)NC(=O)[C@H](Cc2ccc(O)cc2)NC(=O)[C@H](CC(N)=O)NC(=O)[C@H](Cc2c[nH]c3ccccc23)N(C)C(=O)[C@H](C(C)C)NC(=O)[C@H](Cc2cccc(Cl)c2)N(C)C(=O)[C@@H]2CCCC(=O)NCCCCC[C@H](NC(=O)[C@H]([C@@H](C)CC)NC1=O)C(=O)N[C@@H](CCCNC(=N)N)C(=O)N[C@@H](Cc1ccc(O)cc1)C(=O)N(C)[C@@H](Cc1ccc(O)cc1)C(=O)N[C@H](C(N)=O)CSCC(=O)N[C@@H](C)C(=O)N2` [compound 410], the equilibrium dissociation constant (Kd) under setting [2] was 1 to 100 nM.
The same measure, in the same setting: under `CCCC[C@@H]1NC(=O)[C@H]([C@@H](C)CC)NC(=O)[C@H]([C@@H](C)CC)NC(=O)[C@H](Cc2ccc(OC)cc2)NC(=O)[C@H](Cc2ccc(O)cc2)NC(=O)[C@H](CC(N)=O)NC(=O)[C@H](Cc2c[nH]c3ccccc23)N(C)C(=O)[C@H](C(C)C)NC(=O)[C@H](Cc2cccc(Cl)c2)N(C)C(=O)[C@H](C(C)C)NC(=O)[C@H](C)NC(=O)CSC[C@@H](C(=O)NCCOCCOCCOCCOCCC(N)=O)NC(=O)[C@H](Cc2ccc(O)cc2)N(C)C(=O)[C@H](Cc2ccccc2)NC(=O)[C@@H](CCCNC(=N)N)NC1=O` [compound 361] ({CH2CO}-AV[NMePhe(3-Cl)]V[NMeW]NYY(Me)II[Nle][dR]F[NMeY]C[PEG4]-NH2; thioether N-15) stands 1 to 100 nM.
